# Source: ChEMBL document CHEMBL1201862, “PubChem BioAssay data set” (2004)
# The source made the active and inactive calls.
# Assays:
# [1] = biological target: G-protein coupled receptor 55 (Homo sapiens, UniProt Q9Y2T6); assay: GPR55 antagonists blocking LPI-driven arrestin recruitment, primary screen, imaging, U2OS, beta-arrestin-GFP, LPI agonist (AID 2013); assay type: functional;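 note: antagonist potency measured as reduced agonist-driven arrestin aggregation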
# [2] = microbe, parasite or virus in culture; assay type: functional; details: Mycobacterium tuberculosis
# [3] = test system: HEK293; assay: NOD1 signaling inhibitors, primary screen, cell-based, luminescence, uHTS (AID 1578); assay type: functional; details: Homo sapiens
# [4] = test system: Streptococcus sp. 'group A'; assay: growth inhibition of control SK(-) GAS strain, dose response, counter-screen for streptokinase expression inhibitor project, luminescence, kanamycin, BacTiterGlo, confirmation (AID 1900); assay type: functional, organism-based
# [5] = test system: HEK293; assay: cells; assay type: functional, cell-based; details: Homo sapiens
# [6] = biological target: T1, Fatty acid synthase (Homo sapiens, UniProt P49327); assay: FAS thioesterase domain inhibitors, dose response, biochemical, kinetic fluorescence intensity (AID 624326); assay type: functional;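 note: rate of fluorescence rise from hydrolysis of a fluorogenic O-methyl fluorescein ester substrate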
# [7] = biological target: Nucleotide-binding oligomerization domain-containing protein 2 (Homo sapiens, UniProt Q9HC29); assay: NOD2 signaling inhibitors, cell-based, luminescence, uHTS, HEK293 (AID 1566); assay type: functional
# [8] = test system: HEK293; assay: NOD2 signaling inhibitors in MDP-stimulated cells, cell-based, uHTS, luminescence (AID 2001); assay type: functional; details: Homo sapiens
# [9] = test system: Streptococcus; assay: Group A Streptococcus viability loss, dose response, counter-screen for streptokinase expression inhibitor project, luminescence, BacTiterGlo (AID 1915); assay type: functional, organism-based;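 note: potency for reduction of bacterial viability or growth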
# [10] = test system: HEK293; assay: cells; assay type: functional, cell-based; details: Homo sapiens; remark: listed apart in the source
# [11] = test system: HEK293; assay: cells; assay type: functional, cell-based; details: Homo sapiens; remark: listed apart in the source
# [12] = biological target: T1, Fatty acid synthase; assay: FAS thioesterase domain inhibitors, dose response, biochemical, endpoint fluorescence intensity, uHTS hits (AID 624327); assay type: functional;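 note: fluorescence from hydrolysis of an O-methyl fluorescein acyl ester substrate by the enzyme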
# [13] = test system: INS1; assay: beta cell apoptosis inhibitors, cytokine rescue, dose response, luminescence, retest (AID 449756); assay type: functional, cell-based; details: Rattus norvegicus;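 note: cell death triggered by IL-1 beta plus TNF-alpha plus IFN-gamma mixture; protective hits raise ATP signal compared with cytokine alone wells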
# [14] = test system: T-cell; assay: inhibitors of CD8+ T cell–vesicle binding, dose response, mouse 2C CD8+ T cells, flow cytometry (AID 485284); assay type: functional
# [15] = biological target: Cytochrome P450 2C19 (Homo sapiens, UniProt P33261); assay: Cytochrome panel assay with activity outcomes. Panel member name: p450-cyp2c19 Compounds with AC50 equal or less than 10 uM are considered active; assay type: functional; details: read-out: AC50
# [16] = biological target: T2, Coagulation factor XII (Homo sapiens, UniProt P00748); assay: FXIIa inhibitor potency, concentration-response, biochemical (AID 716); assay type: functional
# T2 sequence (P00748 whole entry): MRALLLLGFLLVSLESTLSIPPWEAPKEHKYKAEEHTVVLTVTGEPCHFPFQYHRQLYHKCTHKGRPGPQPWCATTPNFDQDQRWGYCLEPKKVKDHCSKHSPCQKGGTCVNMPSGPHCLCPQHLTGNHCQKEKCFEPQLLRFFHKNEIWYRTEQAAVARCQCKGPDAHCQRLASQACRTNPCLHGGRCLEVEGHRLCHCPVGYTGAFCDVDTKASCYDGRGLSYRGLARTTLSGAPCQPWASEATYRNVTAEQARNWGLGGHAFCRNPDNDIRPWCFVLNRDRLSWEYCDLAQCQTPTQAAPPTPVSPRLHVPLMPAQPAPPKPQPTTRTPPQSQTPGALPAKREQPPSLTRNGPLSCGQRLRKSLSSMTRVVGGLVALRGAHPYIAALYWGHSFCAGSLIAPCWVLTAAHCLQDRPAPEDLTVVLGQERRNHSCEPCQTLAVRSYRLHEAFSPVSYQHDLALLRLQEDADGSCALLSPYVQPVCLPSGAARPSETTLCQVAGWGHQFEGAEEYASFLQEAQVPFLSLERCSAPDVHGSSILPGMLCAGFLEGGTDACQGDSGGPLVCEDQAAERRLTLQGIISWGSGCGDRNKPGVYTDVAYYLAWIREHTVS
# [17] = biological target: T3, Polyadenylate-binding protein 1 (Homo sapiens, UniProt P11940); assay: PABP inhibition in translation initiation, SAR follow-up (AID 435018); assay type: functional
# [18] = biological target: Luciferin 4-monooxygenase (Photinus pyralis, UniProt P08659); assay: firefly luciferase enzyme inhibitors, dose response, biochemical, luminescence (AID 1891)
# [19] = biological target: T4, Eukaryotic translation initiation factor 4H (Homo sapiens, UniProt Q15056); assay: eIF4H inhibition in translation initiation, SAR follow-up (AID 435011); assay type: functional
# [20] = biological target: T4, Eukaryotic translation initiation factor 4H; assay: human eIF4H binding inhibitors, primary screen, translation initiation inhibitor project, biochemical, uHTS, fluorescence polarization (AID 2012)
# [21] = Luminescence Cell-Based Dose Confirmation HTS to Identify Inhibitors of Platelet Dense Granule Release. [Related pubchem assays: 1663 (Primary HTS), 1678 (Summary of Project)]; assay type: functional
# [22] = biological target: T3, Polyadenylate-binding protein 1; assay: PABP poly(A) RNA binding inhibitors, primary screen, biochemical, fluorescence polarization, uHTS (AID 2014)
# [23] = biological target: Bcl-2-like protein 10 (Homo sapiens, UniProt Q9HD36); assay: displacers of TR3 peptide from Bcl-B, primary screen, selectivity assay for Bfl-1 inhibitor project, biochemical, fluorescence polarization, FITC-TR3 peptide (AID 748);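 note: fluorescence polarization from a fluorescein-labelled TR3 peptide binding purified Bcl-B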
# Chain of Bcl-2-like protein 10 (Q9HD36 whole entry): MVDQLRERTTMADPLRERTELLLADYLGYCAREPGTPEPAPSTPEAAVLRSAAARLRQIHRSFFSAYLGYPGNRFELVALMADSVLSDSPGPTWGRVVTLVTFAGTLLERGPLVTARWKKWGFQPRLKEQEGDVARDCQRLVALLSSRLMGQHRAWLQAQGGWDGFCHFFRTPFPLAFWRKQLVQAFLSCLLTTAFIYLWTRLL
# T3 sequence (P11940 whole entry): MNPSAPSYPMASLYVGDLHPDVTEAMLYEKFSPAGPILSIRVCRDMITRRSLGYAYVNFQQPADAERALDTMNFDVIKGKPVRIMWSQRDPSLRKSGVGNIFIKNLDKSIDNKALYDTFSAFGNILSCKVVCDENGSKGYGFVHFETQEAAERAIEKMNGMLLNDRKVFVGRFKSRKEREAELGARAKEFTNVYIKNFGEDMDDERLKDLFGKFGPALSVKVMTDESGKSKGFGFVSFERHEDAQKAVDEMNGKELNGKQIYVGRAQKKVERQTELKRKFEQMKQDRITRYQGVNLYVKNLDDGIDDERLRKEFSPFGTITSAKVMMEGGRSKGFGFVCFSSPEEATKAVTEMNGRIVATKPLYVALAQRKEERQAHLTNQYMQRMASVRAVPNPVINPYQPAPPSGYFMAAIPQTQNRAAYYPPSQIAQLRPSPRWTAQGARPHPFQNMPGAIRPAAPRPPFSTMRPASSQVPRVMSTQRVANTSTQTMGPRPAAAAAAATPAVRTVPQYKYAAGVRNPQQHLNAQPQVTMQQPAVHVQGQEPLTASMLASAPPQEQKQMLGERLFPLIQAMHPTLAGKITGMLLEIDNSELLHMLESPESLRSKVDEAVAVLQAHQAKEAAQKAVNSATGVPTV
# T1 sequence (P49327 whole entry, the tested form may be a part): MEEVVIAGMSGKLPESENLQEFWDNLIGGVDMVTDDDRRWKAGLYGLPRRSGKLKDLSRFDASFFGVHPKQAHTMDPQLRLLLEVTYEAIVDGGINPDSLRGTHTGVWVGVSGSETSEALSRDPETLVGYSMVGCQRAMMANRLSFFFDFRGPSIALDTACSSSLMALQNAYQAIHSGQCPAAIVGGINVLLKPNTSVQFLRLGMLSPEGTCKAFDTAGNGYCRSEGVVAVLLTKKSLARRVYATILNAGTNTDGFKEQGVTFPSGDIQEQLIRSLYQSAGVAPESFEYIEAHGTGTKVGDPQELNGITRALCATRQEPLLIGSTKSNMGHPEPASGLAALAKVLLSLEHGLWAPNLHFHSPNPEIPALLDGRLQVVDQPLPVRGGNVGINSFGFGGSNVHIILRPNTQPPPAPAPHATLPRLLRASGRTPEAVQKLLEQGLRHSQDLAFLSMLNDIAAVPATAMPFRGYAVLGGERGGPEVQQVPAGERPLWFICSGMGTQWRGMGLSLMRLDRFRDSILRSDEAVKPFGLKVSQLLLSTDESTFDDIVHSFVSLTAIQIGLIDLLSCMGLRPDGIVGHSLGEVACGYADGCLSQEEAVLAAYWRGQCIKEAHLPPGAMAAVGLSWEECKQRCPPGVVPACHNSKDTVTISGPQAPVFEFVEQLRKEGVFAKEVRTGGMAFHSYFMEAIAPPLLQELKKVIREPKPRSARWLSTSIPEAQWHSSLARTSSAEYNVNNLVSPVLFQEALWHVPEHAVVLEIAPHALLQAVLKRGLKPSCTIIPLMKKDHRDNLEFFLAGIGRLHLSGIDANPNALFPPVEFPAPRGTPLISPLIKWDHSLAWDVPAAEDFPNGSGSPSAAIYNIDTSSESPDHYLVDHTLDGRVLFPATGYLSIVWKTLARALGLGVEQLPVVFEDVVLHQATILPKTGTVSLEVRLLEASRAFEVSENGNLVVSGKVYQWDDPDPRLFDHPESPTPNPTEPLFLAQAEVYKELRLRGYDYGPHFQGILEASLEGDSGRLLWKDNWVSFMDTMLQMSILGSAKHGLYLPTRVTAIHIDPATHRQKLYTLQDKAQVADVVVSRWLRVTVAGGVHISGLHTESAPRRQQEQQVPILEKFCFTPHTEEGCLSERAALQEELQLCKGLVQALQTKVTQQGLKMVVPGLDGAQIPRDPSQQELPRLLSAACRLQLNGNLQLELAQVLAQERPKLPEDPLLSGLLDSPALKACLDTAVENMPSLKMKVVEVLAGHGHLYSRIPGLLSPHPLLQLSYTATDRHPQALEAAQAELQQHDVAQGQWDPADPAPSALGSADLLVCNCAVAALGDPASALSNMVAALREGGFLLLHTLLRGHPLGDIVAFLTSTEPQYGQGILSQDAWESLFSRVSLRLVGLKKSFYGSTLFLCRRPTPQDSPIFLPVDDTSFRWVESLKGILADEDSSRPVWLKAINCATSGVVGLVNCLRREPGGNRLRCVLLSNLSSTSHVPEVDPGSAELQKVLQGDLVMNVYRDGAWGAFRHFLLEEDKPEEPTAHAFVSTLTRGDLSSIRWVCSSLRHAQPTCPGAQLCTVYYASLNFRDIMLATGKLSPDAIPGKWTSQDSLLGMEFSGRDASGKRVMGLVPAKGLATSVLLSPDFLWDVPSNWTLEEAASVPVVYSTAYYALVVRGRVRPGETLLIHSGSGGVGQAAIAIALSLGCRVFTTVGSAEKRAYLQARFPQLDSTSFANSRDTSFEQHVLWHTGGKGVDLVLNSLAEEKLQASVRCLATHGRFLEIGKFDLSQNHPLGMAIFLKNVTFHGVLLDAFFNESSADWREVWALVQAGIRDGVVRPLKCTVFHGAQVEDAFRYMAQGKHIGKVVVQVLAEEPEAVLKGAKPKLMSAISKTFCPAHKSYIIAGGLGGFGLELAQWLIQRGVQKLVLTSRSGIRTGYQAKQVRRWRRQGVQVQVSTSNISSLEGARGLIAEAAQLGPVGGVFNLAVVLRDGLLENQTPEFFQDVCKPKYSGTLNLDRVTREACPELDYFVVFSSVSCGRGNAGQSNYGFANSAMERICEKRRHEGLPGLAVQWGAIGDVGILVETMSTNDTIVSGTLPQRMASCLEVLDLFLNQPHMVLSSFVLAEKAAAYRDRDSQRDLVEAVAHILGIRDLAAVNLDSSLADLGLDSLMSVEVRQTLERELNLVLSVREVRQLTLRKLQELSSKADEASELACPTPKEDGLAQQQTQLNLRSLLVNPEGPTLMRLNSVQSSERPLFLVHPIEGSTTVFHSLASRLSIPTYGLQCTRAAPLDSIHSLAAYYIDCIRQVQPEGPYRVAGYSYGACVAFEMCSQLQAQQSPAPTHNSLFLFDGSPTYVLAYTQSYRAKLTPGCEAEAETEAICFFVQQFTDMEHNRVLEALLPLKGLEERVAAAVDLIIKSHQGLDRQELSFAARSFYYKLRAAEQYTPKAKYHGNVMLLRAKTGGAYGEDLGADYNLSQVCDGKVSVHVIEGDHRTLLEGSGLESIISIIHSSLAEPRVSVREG
# Chain of G-protein coupled receptor 55 (Q9Y2T6 whole entry): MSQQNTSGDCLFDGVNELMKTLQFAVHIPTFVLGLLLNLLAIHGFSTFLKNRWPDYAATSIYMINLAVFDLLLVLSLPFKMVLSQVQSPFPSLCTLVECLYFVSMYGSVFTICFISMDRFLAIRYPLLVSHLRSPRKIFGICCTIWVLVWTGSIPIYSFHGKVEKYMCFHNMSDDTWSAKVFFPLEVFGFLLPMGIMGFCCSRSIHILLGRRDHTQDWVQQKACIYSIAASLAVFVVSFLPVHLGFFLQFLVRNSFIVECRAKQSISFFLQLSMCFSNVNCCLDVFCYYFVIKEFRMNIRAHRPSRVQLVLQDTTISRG
# Chain of Luciferin 4-monooxygenase (P08659 whole entry): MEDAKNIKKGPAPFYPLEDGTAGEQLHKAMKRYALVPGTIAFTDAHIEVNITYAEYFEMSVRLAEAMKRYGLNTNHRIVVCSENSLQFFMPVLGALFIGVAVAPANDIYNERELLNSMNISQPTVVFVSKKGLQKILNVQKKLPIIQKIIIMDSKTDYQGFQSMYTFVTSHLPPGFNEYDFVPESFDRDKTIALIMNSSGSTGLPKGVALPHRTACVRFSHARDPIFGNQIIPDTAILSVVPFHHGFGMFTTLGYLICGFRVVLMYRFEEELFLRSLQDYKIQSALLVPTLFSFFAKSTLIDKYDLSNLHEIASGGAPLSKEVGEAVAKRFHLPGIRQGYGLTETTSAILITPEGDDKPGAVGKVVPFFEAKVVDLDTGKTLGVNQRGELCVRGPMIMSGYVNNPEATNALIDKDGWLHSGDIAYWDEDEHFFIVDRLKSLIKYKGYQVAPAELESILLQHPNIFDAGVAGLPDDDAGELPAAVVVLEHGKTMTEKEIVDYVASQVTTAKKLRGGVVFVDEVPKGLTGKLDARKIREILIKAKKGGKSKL
# Chain of Cytochrome P450 2C19 (P33261 whole entry): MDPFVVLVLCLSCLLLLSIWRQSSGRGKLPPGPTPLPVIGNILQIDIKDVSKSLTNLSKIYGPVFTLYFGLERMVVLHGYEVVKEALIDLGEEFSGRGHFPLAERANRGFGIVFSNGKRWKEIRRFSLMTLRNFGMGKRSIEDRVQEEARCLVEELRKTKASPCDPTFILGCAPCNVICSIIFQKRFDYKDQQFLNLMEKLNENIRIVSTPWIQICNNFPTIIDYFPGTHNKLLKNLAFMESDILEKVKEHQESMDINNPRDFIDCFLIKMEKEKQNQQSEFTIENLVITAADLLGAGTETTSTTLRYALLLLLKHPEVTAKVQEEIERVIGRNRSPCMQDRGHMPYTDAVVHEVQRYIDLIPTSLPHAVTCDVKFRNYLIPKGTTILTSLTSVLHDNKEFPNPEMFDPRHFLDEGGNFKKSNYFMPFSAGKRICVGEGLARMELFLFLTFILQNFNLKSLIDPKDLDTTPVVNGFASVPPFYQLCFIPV
structure (smiles),measurement,setting,value
CN(C1CCCCC1)S(=O)(=O)c1ccc(NC(=O)C2CCCCC2C(=O)O)cc1 (stereo not drawn),IC50,[1],4.72 µM (active)
CCOc1ccc(-c2csc(/C(C#N)=C\c3ccc(O)c([N+](=O)[O-])c3)n2)cc1,CC50,[2],10.5 µM (active)
same,EC50,[3],1.52 µM (active)
same,EC50,[4],2.18 µM (active)
same,IC50,[5],1.83 µM (active)
same,IC50,[6],6.74 µM (active)
same,EC50,[7],6.23 µM (active)
same,IC50,[8],2.58 µM (inactive)
same,EC50,[9],3.58 µM (active)
same,IC50,[10],6.63 µM (active)
same,IC50,[11],> 20 µM (inactive)
same,IC50,[12],6.61 µM (active)
same,AC50,[13],4 µM (active)
COc1ccc(C(=O)C2=C(O)C(=O)N(Cc3cccnc3)C2c2ccco2)cc1OC (stereo not drawn),EC50,[14],64 µM (inactive)
same,AC50,[15],0.0891 µM (inconclusive)
COc1ccc(N2CCN(C(=O)c3c(-c4ccccc4)noc3C)CC2)cc1,IC50,[16],> 50 µM (inactive)
CCN1CCN(S(=O)(=O)c2ccc(Cl)c(C(=O)Nc3ccc(C(=O)N(CC)CC)cc3)c2)CC1,IC50,[17],1.33 µM (active)
same,EC50,[18],> 112 µM (not active)
same,IC50,[19],> 100 µM (inactive)
same,IC50,[20],> 100 µM (inactive)
same,EC50,[21],> 112 µM (not active)
same,IC50,[22],15.1 µM (active)
Cc1ccc2nc3sc(-c4nnc(-c5ccccc5[N+](=O)[O-])o4)c(N)c3cc2c1,IC50,[23],> 100 µM (inactive)
